pEC50: −log10 of the molar value.
Assays:
[1] = system: HCV genotype 1a (H77 strain) replicon in HUH-7 cells; test: HCV replicon luciferase reporter assay, genotype 1a; format: cell-based; settings: Hepatitis C virus, Huh-7, 72 h, HCV genotype 1a replicon luciferase assay, 3 days incubation, range class, read-out: LE_1a (EC50, range)
Method in brief: (§1)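 Replicon inhibition for both genotypes was measured as Renilla luciferase signal (EnduRen, 7.5 μM final, 2 h) after 3-day, 37° C exposure of replicon-bearing HUH-7 cells in 4% FCS DMEM, 0.5% DMSO. The 1b construct carries S1179I; the 1a H77 construct carries P1496L and S2204I. Twenty-point, 3-fold dilutions were fitted four-parametrically for EC50, and CC50 was taken from multiplexed Cell Titer-Blue.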

[2] = system: HCV genotype 1b (Con1) replicon in HUH-7 cells; test: HCV replicon luciferase reporter assay, genotype 1b; format: cell-based; settings: Hepatitis C virus, Huh-7, 72 h, HCV genotype 1b replicon luciferase assay, 3 days incubation, range class, read-out: LE_1b (EC50, range)
Method in brief: as §1

Row | SMILES | pEC50 [1] | pEC50 [2]
1 | CCCOc1cc2c(Cl)cccc2c(O[C@@H]2C[C@H]3C(=O)N[C@]4(C(=O)NS(=O)(=O)C5(C)CC5)C[C@H]4/C=C\CC[C@H](C)C[C@@H](C)[C@H](NC(=O)OC(C)(C)C)C(=O)N3C2)n1 [Compound 1071, tert-butyl ((2R,6S,7R,9S,13aS,14aR,16aS,Z)-2-((5-chloro-3-propoxyisoquinolin-1-yl)oxy)-7,9-dimethyl-14a-(((1-methylcyclopropyl)sulfonyl)carbamoyl)-5,16-dioxo-1,2,3,5,6,7,8,9,10,11,13a,14,14a,15,16,16a-hexadecahydrocyclopropa[e]pyrrolo[1,2-a][1,4]diazacyclopentadecin-6-yl)carbamate] | > 8.26 | > 8.26
2 | CCCOc1cc2c(Cl)cccc2c(O[C@@H]2C[C@H]3C(=O)N[C@]4(C(=O)NS(=O)(=O)C5(C)CC5)C[C@H]4/C=C\CC[C@@H](C)C[C@@H](C)[C@H](NC(=O)OC(C)(C)C)C(=O)N3C2)n1 [Compound 1072, tert-butyl ((2R,6S,7R,9R,13aS,14aR,16aS,Z)-2-((5-chloro-3-propoxyisoquinolin-1-yl)oxy)-7,9-dimethyl-14a-(((1-methylcyclopropyl)sulfonyl)carbamoyl)-5,16-dioxo-1,2,3,5,6,7,8,9,10,11,13a,14,14a,15,16,16a-hexadecahydrocyclopropa[e]pyrrolo[1,2-a][1,4]diazacyclopentadecin-6-yl)carbamate] | > 8.26 | > 8.26
3 | C[C@H]1CC/C=C\[C@@H]2C[C@@]2(C(=O)NS(=O)(=O)C2(C)CC2)NC(=O)[C@@H]2C[C@@H](Oc3nc(OCC(F)F)cc4c(Cl)cccc34)CN2C(=O)[C@@H](NC(=O)OC(C)(C)C)[C@H](C)C1 [Compound 1073, tert-butyl ((2R,6S,7R,9S,13aS,14aR,16aS,Z)-2-((5-chloro-3-(2,2-difluoroethoxyl)isoquinolin-1-yl)oxy)-7,9-dimethyl-14a-(((1-methylcyclopropyl)sulfonyl)carbamoyl)-5,16-dioxo-1,2,3,5,6,7,8,9,10,11,13a,14,14a,15,16,16a-hexadecahydrocyclopropa[e]pyrrolo[1,2-a][1,4]diazacyclopentadecin-6-yl)carbamate] | > 8.26 | > 8.26
4 | C[C@@H]1CC/C=C\[C@@H]2C[C@@]2(C(=O)NS(=O)(=O)C2(C)CC2)NC(=O)[C@@H]2C[C@@H](Oc3nc(OCC(F)F)cc4c(Cl)cccc34)CN2C(=O)[C@@H](NC(=O)OC(C)(C)C)[C@H](C)C1 [Compound 1074, tert-butyl ((2R,6S,7R,9R,13aS,14aR,16aS,Z)-2-((5-chloro-3-(2,2-difluoroethoxyl)isoquinolin-1-yl)oxy)-7,9-dimethyl-14a-(((1-methylcyclopropyl)sulfonyl)carbamoyl)-5,16-dioxo-1,2,3,5,6,7,8,9,10,11,13a,14,14a,15,16,16a-hexadecahydrocyclopropa[e]pyrrolo[1,2-a][1,4]diazacyclopentadecin-6-yl)carbamate] | > 8.26 | > 8.26
5 | C[C@H]1CC/C=C\[C@@H]2C[C@@]2(C(=O)NS(=O)(=O)C2CC2)NC(=O)[C@@H]2C[C@@H](Oc3nc(OCC(F)F)cc4c(Cl)cccc34)CN2C(=O)[C@@H](NC(=O)OC(C)(C)C)[C@H](C)C1 [Compound 1075, tert-butyl ((2R,6S,7R,9S,13aS,14aR,16aS,Z)-2-((5-chloro-3-(2,2-difluoroethoxy)isoquinolin-1-yl)oxy)-14a-((cyclopropylsulfonyl)carbamoyl)-7,9-dimethyl-5,16-dioxo-1,2,3,5,6,7,8,9,10,11,13a,14,14a,15,16,16a-hexadecahydrocyclopropa[e]pyrrolo[1,2-a][1,4]diazacyclopentadecin-6-yl)carbamate] | > 8.26 | > 8.26
6 | C[C@@H]1CC/C=C\[C@@H]2C[C@@]2(C(=O)NS(=O)(=O)C2CC2)NC(=O)[C@@H]2C[C@@H](Oc3nc(OCC(F)F)cc4c(Cl)cccc34)CN2C(=O)[C@@H](NC(=O)OC(C)(C)C)[C@H](C)C1 [Compound 1076, tert-butyl ((2R,6S,7R,9R,13aS,14aR,16aS,Z)-2-((5-chloro-3-(2,2-difluoroethoxyl)isoquinolin-1-yl)oxy)-14a-((cyclopropylsulfonyl)carbamoyl)-7,9-dimethyl-5,16-dioxo-1,2,3,5,6,7,8,9,10,11,13a,14,14a,15,16,16a-hexadecahydrocyclopropa[e]pyrrolo[1,2-a][1,4]diazacyclopentadecin-6-yl)carbamate] | > 8.26 | > 8.26
7 | CCCOc1cc2c(Cl)cccc2c(O[C@@H]2C[C@H]3C(=O)N[C@]4(C(=O)NS(=O)(=O)C5(C)CC5)C[C@H]4/C=C\CC[C@H](C)C[C@@H](C)[C@H](NC(=O)OC(C)(C)C(F)(F)F)C(=O)N3C2)n1 [Compound 1077, 1,1,1-trifluoro-2-methylpropan-2-yl((2R,6S,7R,9S,13aS,14aR,16aS,Z)-2-((5-chloro-3-propoxyisoquinolin-1-yl)oxy)-7,9-dimethyl-14a-(((1-methylcyclopropyl)sulfonyl)carbamoyl)-5,16-dioxo-1,2,3,5,6,7,8,9,10,11,13a,14,14a,15,16,16a-hexadecahydrocyclopropa[e]pyrrolo[1,2-a][1,4]diazacyclopentadecin-6-yl)carbamate] | 6.99 to 8.32 | > 8.26
8 | CCCOc1cc2c(Cl)cccc2c(O[C@@H]2C[C@H]3C(=O)N[C@]4(C(=O)NS(=O)(=O)C5(C)CC5)C[C@H]4/C=C\CC[C@@H](C)C[C@@H](C)[C@H](NC(=O)OC(C)(C)C(F)(F)F)C(=O)N3C2)n1 [Compound 1078, 1,1,1-trifluoro-2-methylpropan-2-yl((2R,6S,7R,9R,13aS,14aR,16aS,Z)-2-((5-chloro-3-propoxyisoquinolin-1-yl)oxy)-7,9-dimethyl-14a-(((1-methylcyclopropyl)sulfonyl)carbamoyl)-5,16-dioxo-1,2,3,5,6,7,8,9,10,11,13a,14,14a,15,16,16a-hexadecahydrocyclopropa[e]pyrrolo[1,2-a][1,4]diazacyclopentadecin-6-yl)carbamate] | > 8.26 | > 8.26
9 | CCCOc1cc2c(Cl)cccc2c(O[C@@H]2C[C@H]3C(=O)N[C@]4(C(=O)NS(=O)(=O)C5(C)CC5)C[C@H]4/C=C\CC[C@H](C)C[C@@H](C)[C@H](NC(=O)O[C@H](C)C(F)(F)F)C(=O)N3C2)n1 [Compound 1079, (R)-1,1,1-trifluoropropan-2-yl ((2R,6S,7R,9S,13aS,14aR,16aS,Z)-2-((5-chloro-3-propoxyisoquinolin-1-yl)oxy)-7,9-dimethyl-14a-(((1-methylcyclopropyl)sulfonyl)carbamoyl)-5,16-dioxo-1,2,3,5,6,7,8,9,10,11,13a,14,14a,15,16,16a-hexadecahydrocyclopropa[e]pyrrolo[1,2-a][1,4]diazacyclopentadecin-6-yl)carbamate] | 6.99 to 8.32 | > 8.26
10 | CCCOc1cc2c(Cl)cccc2c(O[C@@H]2C[C@H]3C(=O)N[C@]4(C(=O)NS(=O)(=O)C5(C)CC5)C[C@H]4/C=C\CC[C@@H](C)C[C@@H](C)[C@H](NC(=O)O[C@H](C)C(F)(F)F)C(=O)N3C2)n1 [Compound 1080, (R)-1,1,1-trifluoropropan-2-yl ((2R,6S,7R,9R,13aS,14aR,16aS,Z)-2-((5-chloro-3-propoxyisoquinolin-1-yl)oxy)-7,9-dimethyl-14a-(((1-methylcyclopropyl)sulfonyl)carbamoyl)-5,16-dioxo-1,2,3,5,6,7,8,9,10,11,13a,14,14a,15,16,16a-hexadecahydrocyclopropa[e]pyrrolo[1,2-a][1,4]diazacyclopentadecin-6-yl)carbamate] | > 8.26 | > 8.26
11 | CCCOc1cc2c(Cl)cccc2c(O[C@@H]2C[C@H]3C(=O)N[C@]4(C(=O)NS(=O)(=O)C5CC5)C[C@H]4/C=C\CC[C@H](C)C[C@@H](C)[C@H](NC(=O)O[C@H](C)C(F)(F)F)C(=O)N3C2)n1 [Compound 1081, (R)-1,1,1-trifluoropropan-2-yl ((2R,6S,7R,9S,13aS,14aR,16aS,Z)-2-((5-chloro-3-propoxyisoquinolin-1-yl)oxy)-14a-((cyclopropylsulfonyl)carbamoyl)-7,9-dimethyl-5,16-dioxo-1,2,3,5,6,7,8,9,10,11,13a,14,14a,15,16,16a-hexadecahydrocyclopropa[e]pyrrolo[1,2-a][1,4]diazacyclopentadecin-6-yl)carbamate] | 6.99 to 8.32 | > 8.26
12 | CCCOc1cc2c(Cl)cccc2c(O[C@@H]2C[C@H]3C(=O)N[C@]4(C(=O)NS(=O)(=O)C5CC5)C[C@H]4/C=C\CC[C@@H](C)C[C@@H](C)[C@H](NC(=O)O[C@H](C)C(F)(F)F)C(=O)N3C2)n1 [Compound 1082, (R)-1,1,1-trifluoropropan-2-yl ((2R,6S,7R,9R,13aS,14aR,16aS,Z)-2-((5-chloro-3-propoxyisoquinolin-1-yl)oxy)-14a-((cyclopropylsulfonyl)carbamoyl)-7,9-dimethyl-5,16-dioxo-1,2,3,5,6,7,8,9,10,11,13a,14,14a,15,16,16a-hexadecahydrocyclopropa[e]pyrrolo[1,2-a][1,4]diazacyclopentadecin-6-yl)carbamate] | > 8.26 | > 8.26
13 | CCCOc1cc2c(Cl)cccc2c(O[C@@H]2C[C@H]3C(=O)N[C@]4(C(=O)NS(=O)(=O)C5CC5)C[C@H]4/C=C\CC[C@H](C)C[C@@H](C)[C@H](NC(=O)OC(C)(C)C(F)(F)F)C(=O)N3C2)n1 [Compound 1083, 1,1,1-trifluoro-2-methylpropan-2-yl((2R,6S,7R,9S,13aS,14aR,16aS,Z)-2-((5-chloro-3-propoxyisoquinolin-1-yl)oxy)-14a-((cyclopropylsulfonyl)carbamoyl)-7,9-dimethyl-5,16-dioxo-1,2,3,5,6,7,8,9,10,11,13a,14,14a,15,16,16a-hexadecahydrocyclopropa[e]pyrrolo[1,2-a][1,4]diazacyclopentadecin-6-yl)carbamate] | 6.99 to 8.32 | > 8.26

— patent US9499550B2 (BRISTOL-MYERS SQUIBB COMPANY, priority 2012, dated 2016)
